Reference: PMC12508460 (Nature Communications, 2025)
Where a chain is given by its changes, count along the chain named.

How the values were obtained:
WT DP1 = target: T1, WT DP1 (Homo sapiens, UniProt Q13258); assay: Cyclic AMP GloSensor assay
T1 sequence (Q13258 1-359): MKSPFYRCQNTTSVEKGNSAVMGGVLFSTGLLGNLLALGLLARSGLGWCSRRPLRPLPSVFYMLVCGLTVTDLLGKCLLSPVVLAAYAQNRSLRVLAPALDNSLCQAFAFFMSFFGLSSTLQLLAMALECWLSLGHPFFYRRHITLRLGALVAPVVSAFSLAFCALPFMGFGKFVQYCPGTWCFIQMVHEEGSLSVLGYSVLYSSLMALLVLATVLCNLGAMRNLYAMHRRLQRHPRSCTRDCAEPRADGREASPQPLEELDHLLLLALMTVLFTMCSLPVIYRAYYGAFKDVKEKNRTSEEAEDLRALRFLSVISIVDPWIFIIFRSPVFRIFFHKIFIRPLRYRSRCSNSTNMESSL

DP1 R327^8.47A = target: T2, DP1 R327^8.47A (Homo sapiens, UniProt Q13258, R327A); assay: ONE-GO BRET Gs protein activation assay; format: cell-based
T2 sequence (Q13258 1-359 R327A): T1 sequence (Q13258 1-359) with R327A

Row | SMILES | EC50 (WT DP1) | Effect on basal activity of DP1 in cAMP accumulation assays (WT DP1) | Reduction of the potency of PGD2 by the R327^8.47A mutation (DP1 R327^8.47A)
1 | Cc1cc(OC[C@@H]2CN(C)c3ccccc3O2)cc(C)c1C(=O)Nc1ccc(Cl)c(CC(=O)O)c1 [ONO2550289, (S)-2-(2-chloro-5-(2,6-dimethyl-4-((4-methyl-3,4-dihydro-2H-benzo[b][1,4]oxazin-2-yl)methoxy)benzamido)phenyl)acetic acid] | 1.1 nM | fully inhibit the basal activity | 
2 | Cc1cc(OC[C@@H]2CN(C)c3ccccc3O2)cc(C)c1C(=O)Nc1ccc(Cl)c(C2(C(=O)O)CC2)c1 [ONO3030297, (S)-1-(2-chloro-5-(2,6-dimethyl-4-((4-methyl-3,4-dihydro-2H-benzo[b][1,4]oxazin-2-yl)methoxy)benzamido)phenyl)cyclopropane-1-carboxylic acid] | 1.3 nM | fully inhibit the basal activity | 
3 | CCCCC[C@H](O)/C=C/[C@H]1C(=O)C[C@H](O)[C@@H]1C/C=C\CCCC(=O)O [PGD2, Prostaglandin D2] | 6.2 nM |  | over 70 fold
